Data: paper PMC2915651 (2010)

Tests used:
[1] = system: [d(TGGGGT)]4 (DNA, G4) TGGGGT; assay: ITC; settings: 70 mM KCl; 20 mM phosphate, 0.1 mM EDTA, pH 7.0, 25 °C; identical sites, n = 2.0
[2] = system: [d(TGGGGT)]4 (DNA, G4) TGGGGT; assay: 1H NMR titration; settings: 70 mM KCl; 10 mM phosphate, EDTA, pH 7.0, 25 °C; 2 mM quadruplex; fast exchange
[3] = system: d(CGCGAATTCGCG)2 (DNA, duplex) CGCGAATTCGCG; assay: ITC; settings: 70 mM KCl; 20 mM phosphate, 0.1 mM EDTA, pH 7.0, 25 °C; no resolvable isotherm; ligand 600–700 μM into 30 μM DNA
[4] = system: d(CGCGAATTCGCG)2 (DNA, duplex) CGCGAATTCGCG; assay: 1H NMR titration; settings: 70 mM KCl; 10 mM phosphate, EDTA, pH 7.0, 25 °C; 1 mM DNA; shifts at most 0.03 ppm at 2:1

K b [1] | binding [2] | binding [3] | binding [4] | SMILES
1.9 ± 0.2 × 10^6 M^-1 | yes | weak | weak | Cn1cc(NC(=O)c2cc(NC(=O)c3cc(N=CN)cn3C)cn2C)cc1C(=O)NCCC(=N)N
1.2 ± 0.1 × 10^6 M^-1 | – | – | – | Cn1cc(NC(=O)c2cc(NC(=O)CN=C(N)N)cn2C)cc1C(=O)NCCC(=N)N
